Measurements as given in US8790883B2, “Methods of identifying NF-κB inhibitors” (priority 2003, dated 2014).
Ends that are not written are not given here. Peptide text beside a SMILES is read from it. * marks the point of attachment. BODIPYFLEthylmaleimide = Cc1cc(C)n2c1C=C1C=CC(CCC(=O)NCCN3C(=O)CC(*)C3=O)=[N+]1[B-]2(F)F; BODIPY = not defined here; Cam = NC(=O)C*

How the values were obtained:
[1] = Cytotoxicity of NLM-DR derived peptides (MTS, FACS, microscope), Table 2
[2] = tested on: human retinoblastoma cell lines Y79; test: Cell death assay (MTS) in retinoblastoma cell line Y79; format: cell-based; details: for Y79 cells died: 5 μM concentration, longer treatment (FIG. 8C); for Induction of Y79 cell death: 3 hours, various concentrations, peptides without BODIPY
Protocol: Rb cell line Y79 were treated with various concentration of the Ant-CC2 (WT) (filled squares) or Ant-CC2 (Mu) (open squares) (A), or Ant-LZ (WT) (filled circles), or Ant-LZ (Mu) (open circles) (B), or Ant peptide (open triangle) (C) for 3 hours (A, B) or 16 hours (C). Cell survival was then evaluated using the MTS assay as described in “Materials and methods”
The detection of cell death was performed using the MTS assay provided by Promega (CellTiter 96® AQueous one solution cell proliferation assay). Briefly, 0.3×10^6 Y79 cells in 450 μl were treated with 50 μl of the wild type Ant-CC2 and Ant-LZ peptides (0.1 to 20 μM) or their mutants Ant-CC2 (Mu), Ant-LZ (Mu) or the Ant or left untreated in serum-free RPMI medium at 37° C. After an incubation of […], an aliquot of the cell suspension (200 μl, 0.12×10^6 cells), was then transferee in 96-well plates and mixed with the MTS solution (40 μl) containing the MTS compound and the phenazine ethosulfate. Two hours after, the quantity of formazan produced by viable cells was measured using an automated microplate reader (Bio-TeK Instruments, INC) at 490 nm absorbance. Cell survival was observed under microscope and was estimated as a percentage of the value of untreated controls. The background of the reaction was determined by mixing the MTS solution with cell-free RPMI medium. To increase the sensitivity of the cell death assay, the present inventors used peptides devoid of BODIPY-labeling because the absorption spectra of the fluorophor overlaps with that of the formazan product. All experiments were repeated twice and each experiment condition was repeated in duplicate wells in each experiment.

[3] = tested on: LPS-induced NF-κB activation; test: NF-κB inhibition assay, first procedure: LPS-induced NF-κB dependent β-galactosidase reporter in 70Z/3-C3 cells; format: cell-based, murine; details: for LPS-induced NF-κB activation in presence of peptide: 20 μM peptide 2 h, LPS (3 μg/ml) 5 h, 70Z3-C3 cells
Protocol: The resulting cell line, 70Z3-C3, was incubated for 2 hours in the absence or in the presence of 20 μM of antennapedia peptide (Ant), or BODIPY-labeled antennapedia peptide (BODIPY-Ant), or BODIPY-labeled antennapedia peptide coupled to CC2 (BODIPY-Ant-CC2) or LZ (BODIPY-Ant-LZ) peptides, After peptide internalization, cells were treated for 5 hours with LPS (3 μg/ml, (+) in left panel) or untreated (right panel and (−) in left panel) and the NF-κB activity was measured by β-galactosidase assay. Error bars represent the standard deviation of three separate experiments. (B) Concentration dependence of inhibition of LPS-induced NF-κB activation by BODIPY-Ant-CC2 peptide (left panel) or BODIPY-Ant-LZ peptide (right panel). Cells were treated as in (A) but with different concentration of peptide as indicated. The potential of each peptide to inhibit LPS-induced NF-κB activation was measured by determining the IC50 value that correspond to 50% inhibition of LPS-induced NF-κB activation as compared to the control (no peptide) (C). (D) Effect of the N-fusion sequence of antennapedia on the inhibition of NF-κB activation. Control (no peptide) or CC2, or LZ peptides, with (BODIPY-ANT-CC2, BODIPY-ANT-LZ) or without the antennapedia sequence at the N-terminus (CC2, LZ) were incubated for 2 hours with 70Z3-C3 cells followed with (+) or without (−) the LPS-treatment for 3 hours. NF-κB activity was then measured by β-galactosidase assay.
In a first procedure 2.2×10^5 70Z/3-C3 cells in 220 μl of RPMI 1640 supplemented with 10% fetal calf serum (FCS) and 50 μM β-mercaptoethanol were placed in a 96-well plate and incubated with various concentrations of peptide (0 to 20 μM) at 37° C. in 5% CO2 incubator. After two hours an equal portion (100 μl) of each cell sample transferred in two wells containing each 10^5 cells. One aliquot of cells was then treated for 5 hours with lipopolysaccharides from Salmonella abortus (Sigma) at 0.5 μg/ml final concentration, and the other one left-treated. After 5 hours, cells were centrifuged at 400×g for 5 min at room temperature and the cell pellets were washed three times with cold PBS (250 μl) by centrifugation. Cells were then lysed in the lysis buffer (25 mM tris-phosphate buffer at pH 7.8 containing 8 mM magnesium chloride, 1 mM dithioerythreitol, 1% Triton X-100, 15% glycerol and a protease inhibitor mixture (Roche)), and samples were centrifuged at 4° C. for 20 min to clarify the lysate. The supernatant was then kept on ice, and 30 μl was then assayed to measure the β-galactosidase activity with a plate luminometer (Berthold) using the GALACTON-STAR™ as chemiluminescent substrate (BD Biosciences Clontech, Bronstein et al., 1989). Background of reaction was measured by mixing for 1 hour 30 μl of lysis buffer with the reaction buffer (196 μl) and the GALACTON-STAR™ substrate (4 μl) provided by BD Biosciences. In a second procedure and a more stringent assay, 70Z/3-C3 cells (2.2×105 in 220 μl medium) were centrifuged at 400×g at room temperature after peptide internalization for 2 hours, and cell pellets were washed three times with 200 μl of PBS by centrifugation. Cells were then diluted three times with complete medium, and allowed to grow for at least 24 hours. The following steps are identical to the first procedure.
To analyze the inhibition potential of LPS-induced NF-κB activation by cell permeable BODIPY-Ant-CC2 and BODIPY-Ant-LZ peptides, the present inventors stably transfected the murine pre-B 70Z3 cell line with p12XlacZ-kB, which bears the β-galactosidase reporter gene under the control of the NF-κB transcription factor.

[4] = tested on: LPS-induced NF-κB activation; test: More stringent NF-κB inhibition assay, second procedure: peptide internalization, washing, 24 h growth, then LPS; format: cell-based, murine; details: 10 μM peptide
Excerpt: Left panels show a helical wheel diagram of CC2 (A) and LZ (B) peptides. The view is from the top the molecule. The (a) through (g) positions, which are an essential feature of coiled coil sequence (Vinson, 2002, Mol. Cell. Biol.) represent sequential positions in each peptide sequence. The first (a) and fourth (d) positions that are generally occupied by hydrophobic amino acids constitute the hydrophobic core for parallel as well as antiparallel-coiled coils. Mutations that were introduced in (a) positions of the CC2 variant (BODIPY-Ant-CC2 (Mu); shown as residues 6-40 of SEQ ID NO:3, with glycine mutations corresponding to residues 6-40 of SEQ ID NO:5) or in (d) positions of the LZ variant (BODIPY-Ant-(Mu) are shown. In the right panels, 70Z3-C3 cells were incubated for 2 hours in the absence (control) or in the presence of 10 μM of cell permeable wild type (BODIPY-Ant-CC2 (WT)) or mutant (BODIPY-Ant-CC2 (Mu)) CC2 peptides (A) or wild type (BODIPY-Ant-LZ (WT)) or mutant (BODIPY-Ant-(Mu)) LZ peptides (B). The cells were then extensively washed to remove the excess peptide which had not been internalized and the cells were then diluted three times and allowed to grow for 24 hours before treatment for 5 hours with (+) or without LPS (−). NF-κB activity was measured using the β-galactosidase assay. Error bars represent the standard deviation of two independent experiments.
(A) Sequence alignment of the NEMO-derived LZ (residues 301-336 of SEQ ID NO: 12) and the GCN4 peptides (residues 23-55 of SEQ ID NO:8). Both coiled-coil motifs were aligned using clustalX. Identical and similar amino acid residues (shaded) are indicated by (!) or (*), respectively. (B) Overview and helical wheel diagram of the GCN4 coiled-coil (top view). The amino-acid sequence of GCN4 is shown with its corresponding [a-g] positions and residues that differ from the corresponding NEMO-derived LZ sequence are boxed according to their degree of conservation. Identical (open square) and similar residues (open triangle) are indicated. […] NF-κB activity was measured using the b-galactosidase assay. […]

[5] = Analytical gel filtration, oligomeric states of peptides; format: physicochemical; details: 10 μM, Superdex 75, buffer with 0.1 mM DDM
Protocol: All peptides were loaded at a 10 μM concentration on a superdex 75 HR10/30 column equilibrated in a buffer containing 0.1 mM DDM to improve recovery (see “Materials and methods”). Chromatographic profiles of the CC2 mutant (dashed line) and the CC2 wild type (solid line) fused (BODIPY-Ant-CC2 (WT), BODIPY-Ant-CC2 (Mu), or not fused to the antennapedia sequence (CC2 (WT), CC2 (Mu)) are shown in left panels, and elution profiles of the LZ mutant (dashed line) and the wild type (solid line) fused (BODIPY-Ant-LZ (WT), BODIPY-Ant-LZ (Mu), or not fused to the antennapedia sequence (LZ (WT), LZ (Mu)) are represented in right panels. Elution volumes of globular protein markers are indicated by arrows: Oval, ovalbumin (43 kDa); Chym, chymotrypsinogene A (25 kDa); Ribo, Ribonuclease (13.4 kDa) and Apro, aprotinin (6.5 kDa).
The oligomeric states of peptides were determined by filtration as described in Traincard et al., 2003. In brief, 500 μl samples were loaded on a SUPERDEX™ 75 HR 10/30 column equilibrated in 50 mM Tris-HCl pH 8.0 containing 200 mM NaCl and 0.1 mM DDM, at a constant flow rate of 0.4 ml/min. The presence of the DDM detergent was added in the equilibrium buffer to minimize the adsorption in the column and to increase the peptide recovery. The column was calibrated in the same equilibrium buffer with blue dextran 2000 (void volume), dithioerythritol (total volume), bovine serum albumin (67 kDa, Rs=35.2 Å), ovalbumine (43 kDa, Rs=27.5 Å), chymotrypsinogen A (25 kDa, Rs=21.1 Å), ribonuclease A (13.7 kDa, Rs=16.4 Å), cytochrome C (12.4 kDa, Rs=17.7 Å) and aprotinin (6.5 KDa, Rs=13.5 Å).

CC[C@H](C)[C@H](NC(=O)[C@H](CC(=O)O)NC(=O)[C@H](C)NC(=O)[C@H](CCC(N)=O)NC(=O)[C@H](C)NC(=O)[C@H](CCCCN)NC(=O)[C@H](CC(C)C)NC(=O)[C@H](CCCNC(=N)N)NC(=O)[C@H](CCCNC(=N)N)NC(=O)[C@H](CCCNC(=N)N)NC(=O)[C@H](CCC(N)=O)NC(=O)[C@H](CCCNC(=N)N)NC(=O)[C@H](CCCNC(=N)N)NC(=O)[C@H](CCCCN)NC(=O)[C@H](CCCCN)NC(=O)[C@H](CCCNC(=N)N)NC(=O)CNC(=O)[C@H](Cc1ccc(O)cc1)NC(=O)[C@H](CSC1CC(=O)N(CCNC(=O)CCC2=[N+]3C(=Cc4c(C)cc(C)n4[B-]3(F)F)C=C2)C1=O)NC(C)=O)C(=O)N[C@@H](Cc1ccc(O)cc1)C(=O)N[C@@H](CCCCN)C(=O)N[C@@H](C)C(=O)N[C@@H](CCCNC(=N)N)C(=O)N[C@@H](Cc1ccccc1)C(=O)N[C@@H](CCC(N)=O)C(=O)N[C@@H](C)C(=O)N[C@@H](CCC(=O)O)C(=O)N[C@@H](CCCNC(=N)N)C(=O)N[C@@H](Cc1c[nH]cn1)C(=O)N[C@@H](C)C(=O)N[C@@H](CCCNC(=N)N)C(=O)N[C@@H](CCC(=O)O)C(=O)N[C@@H](CCCCN)C(N)=O (stereo partly shown) [BODIPY-TAT-NLM-DR] (Ac-C(BODIPYFLEthylmaleimide)YGRKKRRQRRRLKAQADIYKARFQAERHAREK-NH2)
Cytotoxicity Cell morphology FACS [1]: no | Cytotoxicity Cell morphology Microscope [1]: no

Ac-C(Cam)RQIKIWFQNRRMKWKKLKAQADIYKADFQAERHAREKLVEKKEYLQEQLEQLQREFNKL-NH2 [Ant-LZ]
Y79 cells died [2]: 80%

Ac-C(Cam)RQIKIWFQNRRMKWKKSKGMQLEDLRQQLQQAEEALVAKQELIDKLKEEAEQHKIV-NH2 [Ant-CC2]
Y79 cells died [2]: 55%

Ant-CC2 (Mu): mutant Ant-CC2 devoid of BODIPY-labeling (SEQ ID NO: 4) (Ac-CRQIKIWFQNRRMKWKKSKGMQLEDLRQQGQQAEEAGVAKQELGDKLKEEAEQHKIV-NH2)
Induction of Y79 cell death [2]: did not induce concentration cell death

Ant-LZ (Mu): mutant Ant-LZ devoid of BODIPY-labeling (SEQ ID NO: 8) (Ac-CRQIKIWFQNRRMKWKKLKAQADIYKADFQAERHAREKLVEKKEYSQEQLEQSQREFNKL-NH2)
Induction of Y79 cell death [2]: not

Ant: antennapedia/penetratin internalization peptide without BODIPY label (SEQ ID NO: 1) (CRQIKIWFQNRRMKWKK) [reference compound]
LPS-induced NF-κB activation in presence of peptide [3]: same level of NF-κB activation as the control | Effect on Y79 cell survival, longer treatment ([2]; 16 hours (FIG. 8C)): did not affect cell survival

B-CRQIKIWFQNRRMKWKK ({BODIPY}-CRQIKIWFQNRRMKWKK; reading uncertain) [BODIPY-Ant, reference compound]
LPS-induced NF-κB activation in presence of peptide [3]: same level of NF-κB activation as the control

B-CRQIKIWFQNRRMKWKKLKAQADIYKADFQAERHAREKLVEKKEYLQEQLEQLQREFNKL (C(BODIPY)RQIKIWFQNRRMKWKKLKAQADIYKADFQAERHAREKLVEKKEYLQEQLEQLQREFNKL-NH2; not fully specified (N-terminus); reading uncertain) [BODIPY-Ant-LZ (WT)]
LPS-induced NF-κB activation in presence of peptide [3]: decreased significantly | LPS-induced NF-κB activation in presence of peptide ([3]; listed as “Leucine zipper” peptide): completely eliminates cell response

B-CRQIKIWFQNRRMKWKKLKAQADIYKADFQAERHAREKLVEKKEYSQEQLEQSQREFNKL (C(BODIPY)RQIKIWFQNRRMKWKKLKAQADIYKADFQAERHAREKLVEKKEYSQEQLEQSQREFNKL-NH2; not fully specified (N-terminus); printed as B-CRQIKIWFQNRRMKWKKLKAQADIYKADFQAERHAREKLVEKKEYSQEQLEQSQREFNKL; reading uncertain) [BODIPY-Ant-LZ (Mu)]
Inhibition of NF-κB activation compared to the control [4]: 15%

LKAQADIYKADFQAERHAREKLVEKKEYLQEQLEQLQREFNKL [LZ (WT)]
LPS-induced NF-κB activation, peptides not fused to antennapedia ([3]; peptide 2 h, LPS 3 h, 70Z3-C3 cells (FIG. 3D)): same level of activation as the control | Oligomeric state by gel filtration [5]: dimer

LKAQADIYKADFQAERHAREKLVEKKEYSQEQLEQSQREFNKL [LZ (Mu)]
Oligomeric state by gel filtration [5]: still detected dimerization

SKGMQLEDLRQQGQQAEEAGVAKQELGDKLKEEAEQHKIV [CC2 (Mu)]
Oligomeric state by gel filtration [5]: lost its ability to oligomerize
